Common to all, as to format: nucleic-acid assay
The test system of assay [1] is Nucleic Acid. Put plainly: Induction of DNA cleavage in Escherichia coli pBR322 DNA assessed as formation of relaxed circular DNA at 100 uM treated for 1 hr using ethidium bromide staining by agarose gel electrophoresis analysis in presence of UV light. Set-up: scale not given: the % may be the effect or the level left.
The test system of assay [2] is Nucleic Acid. Put plainly: Induction of DNA cleavage in Escherichia coli pBR322 DNA assessed as formation of relaxed circular DNA at 100 uM treated for 1 hr using ethidium bromide staining by agarose gel electrophoresis analysis in presence of UV light and DMSO. Set-up: scale not given: the % may be the effect or the level left.
The subject of assay [3] is Nucleic Acid. The assay can be described thus: Induction of DNA cleavage in Escherichia coli pBR322 DNA assessed as formation of relaxed circular DNA at 100 uM treated for 1 hr using ethidium bromide staining by agarose gel electrophoresis analysis in presence of UV light and DABCO. Set-up: scale not given: the % may be the effect or the level left.
Assay [4] relates to Nucleic Acid. Put plainly: Induction of DNA cleavage in Escherichia coli pBR322 DNA assessed as formation of relaxed circular DNA at 100 uM treated for 1 hr using ethidium bromide staining by agarose gel electrophoresis analysis in presence of bubbling with O2 gas. Set-up: scale not given: the % may be the effect or the level left.
The test system of assay [5] is Nucleic Acid. The assay can be described thus: Induction of DNA cleavage in Escherichia coli pBR322 DNA assessed as formation of relaxed circular DNA at 100 uM treated for 1 hr using ethidium bromide staining by agarose gel electrophoresis analysis in presence of bubbling with Ar gas. Set-up: scale not given: the % may be the effect or the level left.
Assay [6] concerns Nucleic Acid. Put plainly: Induction of DNA cleavage in Escherichia coli pBR322 DNA assessed as formation of relaxed circular DNA at 100 uM treated for 1 hr using ethidium bromide staining by agarose gel electrophoresis analysis in presence of UV light and 600 mM of NaN3. Set-up: scale not given: the % may be the effect or the level left.
In assay [7] the test system is Nucleic Acid. The assay can be described thus: Induction of DNA cleavage in Escherichia coli pBR322 DNA assessed as formation of relaxed circular DNA at 100 uM treated for 1 hr using ethidium bromide staining by agarose gel electrophoresis analysis in presence of UV light and 300 mM of NaN3. Set-up: scale not given: the % may be the effect or the level left.
Assay [8] has as its system Nucleic Acid. Put plainly: Induction of DNA cleavage in Escherichia coli pBR322 DNA assessed as formation of relaxed circular DNA at 100 uM treated for 1 hr using ethidium bromide staining by agarose gel electrophoresis analysis in presence of UV light and 150 mM of NaN3. Set-up: scale not given: the % may be the effect or the level left.
The subject of assay [9] is Nucleic Acid. The assay can be described thus: Induction of DNA cleavage in Escherichia coli pBR322 DNA assessed as formation of relaxed circular DNA at 100 uM treated for 1 hr using ethidium bromide staining by agarose gel electrophoresis analysis in presence of UV light and 75 mM of NaN3. Set-up: scale not given: the % may be the effect or the level left.
In assay [10] the test system is Nucleic Acid. Put plainly: Induction of DNA cleavage in Escherichia coli pBR322 DNA assessed as formation of relaxed circular DNA at 75 uM treated for 1 hr using ethidium bromide staining by agarose gel electrophoresis analysis in presence of UV light. Set-up: scale not given: the % may be the effect or the level left.
Assay [11] concerns Nucleic Acid. Put plainly: Induction of DNA cleavage in Escherichia coli pBR322 DNA assessed as formation of relaxed circular DNA at 50 uM treated for 1 hr using ethidium bromide staining by agarose gel electrophoresis analysis in presence of UV light. Set-up: scale not given: the % may be the effect or the level left.
Assay [12] deals with Nucleic Acid. Put plainly: Induction of DNA cleavage in Escherichia coli pBR322 DNA assessed as formation of relaxed circular DNA at 25 uM treated for 1 hr using ethidium bromide staining by agarose gel electrophoresis analysis in presence of UV light. Set-up: scale not given: the % may be the effect or the level left.
The subject of assay [13] is Nucleic Acid. Put plainly: Induction of DNA cleavage in Escherichia coli pBR322 DNA assessed as formation of relaxed circular DNA at 40 uM treated for 1 hr using ethidium bromide staining by agarose gel electrophoresis analysis in presence of UV light. Set-up: scale not given: the % may be the effect or the level left.
The test system of assay [14] is Nucleic Acid. The assay can be described thus: Induction of DNA cleavage in Escherichia coli pBR322 DNA assessed as formation of relaxed circular DNA at 10 uM treated for 1 hr using ethidium bromide staining by agarose gel electrophoresis analysis in presence of UV light. Set-up: scale not given: the % may be the effect or the level left.
The subject of assay [15] is Nucleic Acid. Put plainly: Induction of DNA cleavage in Escherichia coli pBR322 DNA assessed as formation of relaxed circular DNA at 100 uM treated for 1 hr using ethidium bromide staining by agarose gel electrophoresis analysis in presence of UV light and ascorbic acid. Set-up: scale not given: the % may be the effect or the level left.
The test system of assay [16] is Nucleic Acid. Put plainly: Induction of DNA cleavage in Escherichia coli pBR322 DNA assessed as formation of relaxed circular DNA at 100 uM treated for 1 hr using ethidium bromide staining by agarose gel electrophoresis analysis in presence of UV light and D2O. Set-up: scale not given: the % may be the effect or the level left.
In assay [17] the test system is Nucleic Acid. The assay can be described thus: Induction of DNA cleavage in Escherichia coli pBR322 DNA assessed as formation of relaxed circular DNA at 100 uM treated for 1 hr using ethidium bromide staining by agarose gel electrophoresis analysis in presence of UV light and 40 mM of NaN3. Set-up: scale not given: the % may be the effect or the level left.
The subject of assay [18] is Nucleic Acid. Put plainly: Induction of DNA cleavage in Escherichia coli pBR322 DNA assessed as formation of relaxed circular DNA at 100 uM treated for 1 hr using ethidium bromide staining by agarose gel electrophoresis analysis in presence of UV light and 20 mM of NaN3. Set-up: scale not given: the % may be the effect or the level left.
Assay [19] deals with Nucleic Acid. The assay can be described thus: Induction of DNA cleavage in Escherichia coli pBR322 DNA assessed as formation of relaxed circular DNA treated for 1 hr using ethidium bromide staining by agarose gel electrophoresis analysis in presence of UV light.

In the case of `O=C(/C=C/c1c2ccccc2cc2ccccc12)NC(Cc1c[nH]c2ccccc12)C(=O)NO` (stereo not drawn), in the assay with Nucleic Acid [1], the Activity was 89%.

As to `O=C(NO)C(NCc1c2ccccc2cc2ccccc12)c1ccccc1` (stereo not drawn), the Activity in the assay on Nucleic Acid [1] amounted to 98%.

With `O=C(O)C(Cc1ccccc1)NCc1c2ccccc2cc2ccccc12` (stereo not drawn), the Activity with Nucleic Acid [1] amounted to 60%.

For the molecule `O=C(/C=C/c1cccc2ccccc12)NC(Cc1ccccc1)C(=O)NO` (stereo not drawn), in the assay with Nucleic Acid [1], the Activity is 15%.

`O=C(NO)C(Cc1c[nH]c2ccccc12)NCc1c2ccccc2cc2ccccc12` (stereo not drawn): the Activity in the assay with Nucleic Acid [1] came out at 91%.

Consider `O=C(/C=C/c1c2ccccc2cc2ccccc12)NC(Cc1ccccc1)C(=O)NO` (stereo not drawn), for which, in the assay on Nucleic Acid [1], the Activity worked out at 98%.

In the case of `O=C(NO)C(Cc1ccccc1)NCc1cccc2ccccc12` (stereo not drawn), the Activity in the assay on Nucleic Acid [1] is 16%.

Consider `O=C(/C=C/c1c2ccccc2cc2ccccc12)NC(C(=O)NO)c1ccccc1` (stereo not drawn), for which the Activity in the assay with Nucleic Acid [1] was found to be 99%.

On to `O=C(NO)C(Cc1ccccc1)NCc1c2ccccc2cc2ccccc12` (stereo not drawn), for which the Activity with Nucleic Acid [2] was 54%; in the assay on Nucleic Acid [3] it was 74%; in the assay with Nucleic Acid [4] it was 100%; in the assay on Nucleic Acid [5], 75%; in the assay with Nucleic Acid [6], 62%; in the assay on Nucleic Acid [7] it was 62%. Further, the Activity in the assay on Nucleic Acid [8] worked out at 63%; in the assay with Nucleic Acid [9] it was 77%; in the assay on Nucleic Acid [10], 67%; in the assay on Nucleic Acid [11] it was 25%; in the assay with Nucleic Acid [12], 4%; in the assay with Nucleic Acid [13] it was 10%. Also, the Activity with Nucleic Acid [14] is 2%; in the assay on Nucleic Acid [15], 37%; in the assay on Nucleic Acid [16] it was 100%; in the assay with Nucleic Acid [17], 86%; in the assay with Nucleic Acid [18] it was 97%; in the assay on Nucleic Acid [1], 97%. Further, the Activity entry in the assay with Nucleic Acid [19] is “Dose-dependent effect”.

As for `O=C(/C=C/c1c2ccccc2cc2ccccc12)NC(Cc1ccccc1)C(=O)O` (stereo not drawn), the Activity with Nucleic Acid [1] worked out at 35%.

These data come from ChEMBL document CHEMBL2169745, “Photoinduced DNA cleavage by anthracene based hydroxamic acids” (Bioorg Med Chem Lett, 2012).
